Results taken from patent publication US12715844B2, “Compound, preparation method therefor, composition, kit and use thereof” (SIGNDO BIOTECHNOLOGY (SUZHOU) CO., LTD, priority 2023, dated 2026).
“And” between values parts separate entries of the source, which are not always exact repeats. Identical values can stand only once.

Key:
22RV1 (PSMA+) [1] = test: In vivo live imaging comparison with the existing product OTL78; set-up: species or system mice; conditions: 10 nmol/mouse; for TBR (mean): 200 μL/mouse
Source text: “V” denotes the volume-to-mass ratio. […] Mice refer to BALB/c nude mice, 6-8 weeks old, weighing 18-20 g; rats refer to SD rats: 8 weeks old, approximately 250 g.
3. Comparison with the Existing Product OTL78
(§1) The Prostate-specific membrane antigen (PSMA) is overexpressed on prostate cancer cells. The test compound is a PSMA-targeting molecule conjugated with a near-infrared region I dye. The test compound can bind to PSMA and “illuminate” cancer cells upon excitation by a near-infrared light source. In this experiment, the in vivo and ex vivo tissue distribution of the test compound in mice is detected using in vivo live imaging.
DGPR1008, 22RV1 (PSMA+), BALB/c nude mouse, 1640 culture medium, FBS, double antibodies, trypsin, Matrigel (BD), vernier caliper, centrifuge, IVIS live imager.
(§2) Matrigel was thawed on ice in advance, and the culture medium was pre-cooled on ice. After centrifugation, the cells were resuspended in the pre-cooled culture medium, followed by the addition of HC Matrigel gel in a volume equal to the culture medium. The centrifuge tube containing the cells was placed on ice and transferred to the animal facility. The cells were thoroughly dispersed before inoculation. The back of the neck was disinfected with an alcohol cotton ball, and a single intravenous administration was performed with an inoculation volume of 200 μL per mouse. All operations were performed on ice. When the tumor volume reached 300-400 mm^3, the mice were grouped for administration. Six mice with well-grown and regularly shaped tumors were selected into the group. The six mice were randomly divided into two groups: G1 (OTL78 10 nmol/mouse) and G2 (DGPR1008 10 nmol/mouse) with three mice in each group. The scanning time: 1, 2, 4, 8, 24, and 72 h.
(1) Results and Data of In Vivo Live Imaging of Drug Efficacy (Mice were Used as Experimental Subjects in this Part)

22RV1 (PSMA+) [2] = test: 2-hour ex vivo tissue distribution: fluorescence of tumor and in situ normal prostate; set-up: species or system mice; conditions: 2 h ex vivo, 10 nmol/mouse; for T/P Ratio: tumor to in situ normal prostate
Source text: as §1, §2
(2) Results of 2-Hour Ex Vivo Tissue Distribution: Fluorescence Ratio of Tumor to In Situ Normal Prostate: […]

[3] = Pharmacokinetic parameters in rat plasma; assay type: in vivo; conditions: rats, 2 mg/kg, plasma

Prostate fluorescence (22RV1 (PSMA+) [2]; group mean): 3.27E+09 photon/second
Tumor fluorescence (22RV1 (PSMA+) [2]; group mean): 7.26E+09 photon/second
average AUC0-t [3]: 9429 ng·h/mL
average clearance [3]: 3.50 mL/min/kg
Compound: CC1(C)C(/C=C/C2=C(Oc3ccc(C[C@H](NC(=O)[C@H](Cc4ccccc4)NC(=O)CCOCCOCCNC(=O)CC[C@H](NC(=O)N[C@@H](CCC(=O)O)C(=O)O)C(=O)O)C(=O)O)cc3)C(=C/C=C3/N(CCCCS(=O)(=O)O)c4ccc(S(=O)(=O)O)cc4C3(C)C)/CCC2)=[N+](CCCCS(=O)(=O)[O-])c2ccc(S(=O)(=O)O)cc21 [OTL78, reference compound]
TBR (mean) (22RV1 (PSMA+) [1]; 1 h): 1.30
TBR (mean) (22RV1 (PSMA+) [1]; 2 h): 1.35
TBR (mean) (22RV1 (PSMA+) [1]; 4 h): 1.38
TBR (mean) (22RV1 (PSMA+) [1]; 8 h): 1.36
TBR (mean) (22RV1 (PSMA+) [1]; 24 h): 1.55
TBR (mean) (22RV1 (PSMA+) [1]; 72 h): 1.65
fluorescence value at the tumor site (22RV1 (PSMA+) [1]; 1 h): 8.75E+09
fluorescence value at the tumor site (22RV1 (PSMA+) [1]; 2 h): 6.58E+09
fluorescence value at the tumor site (22RV1 (PSMA+) [1]; 4 h): 3.27E+09
fluorescence value at the tumor site (22RV1 (PSMA+) [1]; 8 h): 1.71E+09
fluorescence value at the tumor site (22RV1 (PSMA+) [1]; 24 h): 1.41E+09
fluorescence value at the tumor site (22RV1 (PSMA+) [1]; 72 h): 9.69E+08
Prostate fluorescence (22RV1 (PSMA+) [2]; individual animal): 4.77E+08 photon/second and 8.11E+09 photon/second and 1.23E+09 photon/second
Tumor fluorescence (22RV1 (PSMA+) [2]; individual animal): 7.07E+09 photon/second and 1.01E+10 photon/second and 4.61E+09 photon/second
T/P Ratio (22RV1 (PSMA+) [2]; group mean): 6.61
T/P Ratio (22RV1 (PSMA+) [2]; individual animal): 14.8 and 1.25 and 3.75
